What was measured:
[1] = molecular target: T1, MDR-1 (Homo sapiens, UniProt P08183); assay: MDR-1 activity, ^3H-vincristine accumulation in 9HTEo-/Dx cells; format: cell-based; settings: 5 μM
T1 construct: endogenous in cells; host or cells: 9HTEo-/Dx cells

[2] = molecular target: wildtype CFTR (Homo sapiens, UniProt P13569); assay: YFP fluorescence assay of CFTR-mediated I^− transport in FRT cells; format: cell-based; set-up: expressed in transfected cells; host or cells: Fischer rat thyroid (FRT) cells
Sequence of wildtype CFTR (P13569 whole entry): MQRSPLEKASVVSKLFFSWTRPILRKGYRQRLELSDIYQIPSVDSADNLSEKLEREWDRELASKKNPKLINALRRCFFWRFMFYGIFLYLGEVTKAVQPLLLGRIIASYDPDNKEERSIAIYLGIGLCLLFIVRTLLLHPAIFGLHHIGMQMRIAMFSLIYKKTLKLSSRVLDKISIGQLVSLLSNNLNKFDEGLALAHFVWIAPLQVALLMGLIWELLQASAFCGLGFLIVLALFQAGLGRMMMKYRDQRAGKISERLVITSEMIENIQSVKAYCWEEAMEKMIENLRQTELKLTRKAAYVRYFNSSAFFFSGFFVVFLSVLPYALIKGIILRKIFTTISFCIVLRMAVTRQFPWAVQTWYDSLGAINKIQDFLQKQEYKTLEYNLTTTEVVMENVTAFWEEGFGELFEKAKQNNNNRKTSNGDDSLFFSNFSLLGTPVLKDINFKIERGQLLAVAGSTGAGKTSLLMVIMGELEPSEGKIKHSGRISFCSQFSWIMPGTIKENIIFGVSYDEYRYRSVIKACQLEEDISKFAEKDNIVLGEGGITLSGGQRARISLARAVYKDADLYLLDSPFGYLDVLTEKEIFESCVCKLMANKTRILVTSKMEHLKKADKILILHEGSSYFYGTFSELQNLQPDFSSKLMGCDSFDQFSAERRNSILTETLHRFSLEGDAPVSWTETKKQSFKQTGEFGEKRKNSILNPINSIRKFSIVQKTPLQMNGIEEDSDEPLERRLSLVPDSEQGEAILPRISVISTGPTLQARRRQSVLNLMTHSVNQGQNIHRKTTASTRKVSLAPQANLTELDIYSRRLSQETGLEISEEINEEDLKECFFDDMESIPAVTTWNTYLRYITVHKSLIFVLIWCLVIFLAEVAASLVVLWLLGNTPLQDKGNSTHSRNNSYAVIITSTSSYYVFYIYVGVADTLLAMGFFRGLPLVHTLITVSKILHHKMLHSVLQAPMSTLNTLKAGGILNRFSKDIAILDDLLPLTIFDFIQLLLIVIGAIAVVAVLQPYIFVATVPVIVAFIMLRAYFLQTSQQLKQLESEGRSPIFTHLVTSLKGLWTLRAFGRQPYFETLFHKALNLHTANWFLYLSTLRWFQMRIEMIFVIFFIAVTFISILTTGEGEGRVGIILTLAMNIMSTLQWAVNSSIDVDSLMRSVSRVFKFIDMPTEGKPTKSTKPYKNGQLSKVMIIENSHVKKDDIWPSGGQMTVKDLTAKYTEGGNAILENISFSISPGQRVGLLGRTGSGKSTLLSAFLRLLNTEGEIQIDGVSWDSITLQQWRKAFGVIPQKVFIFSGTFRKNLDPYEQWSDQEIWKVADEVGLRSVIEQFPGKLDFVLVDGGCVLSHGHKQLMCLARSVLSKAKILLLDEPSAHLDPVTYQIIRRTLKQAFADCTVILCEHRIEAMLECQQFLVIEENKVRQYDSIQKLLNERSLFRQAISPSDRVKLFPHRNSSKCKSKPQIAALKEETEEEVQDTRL
Protocol: FIG. 1A is a schematic representation of a screening technique used for detection of CFTR inhibitors. CFTR was maximally stimulated by multiple agonists in stably transfected epithelial cells co-expressing human CFTR and a yellow fluorescent protein (YFP) having Cl^−/I^− sensitive fluorescence. After addition of a test compound, I^− influx was induced by adding an I^− containing solution.
Cells were plated in 96-well black-walled microplates (Corning Costar) at a density of 20,000 cells per well in Coon's modified F12 medium supplemented with 5% fetal calf serum, 2 mM L-glutamine, 100 U/mL penicillin, and 100 μg/mL streptomycin. Assays were done at 48 hours after plating at which time cells were just confluent (˜40,000 cells per well).
Assays were done using a customized screening system (Beckman) consisting of a 3-meter robotic arm, CO2 incubator, plate washer, liquid handling workstation, bar code reader, delidding station, and two FluoStar fluorescence plate readers (BMG Labtechnologies, Offenburg, Germany), each equipped with two syringe pumps and HQ500/20X (500±10 nm) excitation and HQ535/30M (535±15 nm) emission filters (Chroma). The robotic system was integrated using SAMI version 3.3 software (Beckman) modified for two plate readers. Custom software was written in VBA (Visual Basic for Applications) to compute baseline-subtracted, normalized fluorescence slopes (giving halide influx rates) from stored data files.
The assay was set-up by loading the incubator (37° C., 90% humidity, 5% CO2) with 40-60 96-well plates containing the FRT cells, and loading a carousel with 96-well plates containing test compounds and disposable plastic pipette tips. To initiate the assay, each well of a 96-well plate was washed 3 times in PBS (300 μL/wash), leaving 50 μL PBS. Ten μL of a CFTR-activating cocktail (5 μM forskolin, 100 μM IBMX, 25 μM apigenin in PBS) was added, and after 5 min one test compound (0.5 μL of 1 mM DMSO solution) was added to each well to give 10 μM final concentration. After 10 min, 96-well plates were transferred to a plate reader for fluorescence assay. Each well was assayed individually for CFTR-mediated I^− transport by recording fluorescence continuously (200 ms per point) for 2 s (baseline) and then for 12 s after rapid (<0.5 s) addition of 160 μL of isosmolar PBS in which 137 mM Cl^− was replaced by I^−.
The primary screening technique used to identify the compounds of the invention was designed to identify inhibitors of CFTR Cl^− conductance by direct CFTR-inhibitor interaction. CFTR was pre-stimulated in CFTR-expressing FRT cells by an activating cocktail containing forskolin, IBMX and apigenin, as shown schematically in FIG. 1A. The activation of CFTR by multiple mechanisms (cAMP elevation, phosphodiesterase inhibition, and direct CFTR binding) allowed identification of inhibitors that blocked the CFTR Cl^− transporting pathway directly rather than more proximal step(s) in a signaling pathway. The FRT cells co-expressed a yellow fluorescent protein-based Cl^−/I^− sensor that provided a quantitative fluorescence read-out of inhibition potency (See, e.g., Jayaraman et al., 2000, J. Biol. Chem. 275:6047-6050; Galietta et al., 2001, Am. J. Physiol. 281:C1734-C1742.). After CFTR pre-stimulation and compound addition, cells were subjected to an inwardly-directed I^− gradient to drive I^− influx and produce decreasing fluorescence. Each assay consisted of recording baseline fluorescence for 2 seconds, followed by 12 seconds of continuous recording of fluorescence after rapid addition of the I^− containing solution. Compounds were tested separately at 10 μM concentration in a 96-well format utilizing a fully-automated high-throughput screening apparatus (see Example 2 below).

[3] = tested on: FRT cells; assay: Cell toxicity by dihydrorhodamine method; format: cell-based, rat; settings: dihydrorhodamine assay, after 24 hours
[4] = molecular target: T2, CFTR Cl^− channel (Rattus norvegicus, UniProt P34158); assay: Short-circuit current in isolated rat colonic mucosa; settings: 5 μM to the mucosal solution alone, after amiloride and forskolin 20 μM
T2 construct: from tissue; host or cells: rat colon mucosa
T2 sequence (P34158 whole entry): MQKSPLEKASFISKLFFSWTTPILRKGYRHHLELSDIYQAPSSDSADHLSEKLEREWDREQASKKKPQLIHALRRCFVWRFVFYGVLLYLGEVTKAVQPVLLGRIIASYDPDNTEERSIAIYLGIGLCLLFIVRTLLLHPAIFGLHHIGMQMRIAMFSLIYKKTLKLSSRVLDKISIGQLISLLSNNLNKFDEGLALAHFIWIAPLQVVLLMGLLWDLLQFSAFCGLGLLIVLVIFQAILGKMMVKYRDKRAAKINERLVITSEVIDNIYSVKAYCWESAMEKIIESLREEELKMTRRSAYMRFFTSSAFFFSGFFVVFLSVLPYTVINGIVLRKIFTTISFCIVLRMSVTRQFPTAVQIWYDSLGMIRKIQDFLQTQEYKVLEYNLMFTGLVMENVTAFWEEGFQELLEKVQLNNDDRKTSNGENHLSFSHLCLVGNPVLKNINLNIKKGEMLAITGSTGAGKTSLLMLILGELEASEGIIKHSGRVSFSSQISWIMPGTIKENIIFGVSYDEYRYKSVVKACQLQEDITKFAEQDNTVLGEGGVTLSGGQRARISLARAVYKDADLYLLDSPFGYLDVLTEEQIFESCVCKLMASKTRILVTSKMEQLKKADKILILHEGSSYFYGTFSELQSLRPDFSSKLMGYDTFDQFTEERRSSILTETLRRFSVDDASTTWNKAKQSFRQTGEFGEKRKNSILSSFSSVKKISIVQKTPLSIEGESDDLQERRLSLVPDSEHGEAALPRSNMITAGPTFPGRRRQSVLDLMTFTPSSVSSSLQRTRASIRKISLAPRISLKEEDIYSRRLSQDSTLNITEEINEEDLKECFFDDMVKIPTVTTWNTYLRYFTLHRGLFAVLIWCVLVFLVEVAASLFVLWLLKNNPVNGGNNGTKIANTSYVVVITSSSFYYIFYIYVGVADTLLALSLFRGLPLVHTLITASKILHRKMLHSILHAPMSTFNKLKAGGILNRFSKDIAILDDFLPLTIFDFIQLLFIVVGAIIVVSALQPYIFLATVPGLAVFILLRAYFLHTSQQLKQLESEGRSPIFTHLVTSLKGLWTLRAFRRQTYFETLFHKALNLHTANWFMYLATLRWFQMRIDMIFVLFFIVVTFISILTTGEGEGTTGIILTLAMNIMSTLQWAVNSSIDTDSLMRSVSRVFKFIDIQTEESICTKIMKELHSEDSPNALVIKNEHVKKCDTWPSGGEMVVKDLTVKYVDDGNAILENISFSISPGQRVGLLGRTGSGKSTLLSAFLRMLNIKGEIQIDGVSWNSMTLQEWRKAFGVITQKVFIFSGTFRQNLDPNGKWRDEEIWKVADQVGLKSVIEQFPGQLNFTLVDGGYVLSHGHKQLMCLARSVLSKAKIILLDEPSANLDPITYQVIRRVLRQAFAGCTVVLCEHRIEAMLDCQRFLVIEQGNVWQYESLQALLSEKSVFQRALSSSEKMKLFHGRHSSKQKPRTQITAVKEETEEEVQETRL

[5] = Tissue distribution in rats after intravenous bolus; format: in vivo; settings: 60 min after i.v. bolus
Protocol: A bolus of ^14C-CFTRinh-172 (2 μCi) was administered intravenously over 1 min in mice (male CD1 mice, 30-35 grams) by tail vein. Mice were sacrificed at 5, 30, 120 and 240 min. Organs were removed, weighed and homogenized in distilled water (10-50 vol %). Radioactivity was determined by scintillation counting of the homogenates (25-50 μL) and expressed as total ^14C-radioactivity per organ (or per gram tissue for skeletal muscle). At the same time blood, urine and bile (from gallbladder or duodenum) were collected and ^14C-radioactivity was measured and expressed per mL of fluid. Elimination studies were done by collections of urine and stool over the first 24 hr after ^14C-CFTRinh-172 administration. Tissue distribution studies were also done on rats prepared as for pharmacokinetic studies.

[6] = tested on: Calcium-sensitive Cl^− channels; assay: UTP-stimulated Ca^2+-dependent Cl^− secretion, short-circuit current in human bronchial epithelial cells; format: cell-based
Source text: Two non-CFTR Cl^− channels were studied.

[7] = tested on: intestinal fluid absorption; assay: Fluid absorption in mouse closed intestinal loops; format: in vivo, mice; settings: 20 μg intraperitoneal, measured at 30 min
Protocol: FIG. 10 is a set of graphs providing the results of characterization of the mouse closed-intestinal loop model. Panel A (FIG. 10A): Intestinal loops were injected with 200 μL buffer and loop weight measured at indicated times (mean±SEM, 4 mice per time point). […] Inset (top) Chemical structure of CFTRinh-172. Panel B (FIG. 10B): Time course of cholera toxin-induced fluid secretion in mouse closed-loop model. […] Data for injected loops (1 μg cholera toxin/loop) as mean±SEM (4-6 mice).
First, the kinetics of intestinal loop fluid absorption and secretion were determined to characterize the mouse model. To study absorption, loop fluid content was measured at specified times after injection of 200 μL of PBS into individual loops. […] To study secretion, intestinal loops were injected with cholera toxin (1 μg in 0.1 mL PBS).

[8] = molecular target: CFTR (Homo sapiens, UniProt P13569); assay: Short-circuit current in T84 colonic epithelial cells
Sequence of CFTR (P13569 whole entry): as the sequence (P13569 whole entry) above

T1 sequence (P08183 whole entry): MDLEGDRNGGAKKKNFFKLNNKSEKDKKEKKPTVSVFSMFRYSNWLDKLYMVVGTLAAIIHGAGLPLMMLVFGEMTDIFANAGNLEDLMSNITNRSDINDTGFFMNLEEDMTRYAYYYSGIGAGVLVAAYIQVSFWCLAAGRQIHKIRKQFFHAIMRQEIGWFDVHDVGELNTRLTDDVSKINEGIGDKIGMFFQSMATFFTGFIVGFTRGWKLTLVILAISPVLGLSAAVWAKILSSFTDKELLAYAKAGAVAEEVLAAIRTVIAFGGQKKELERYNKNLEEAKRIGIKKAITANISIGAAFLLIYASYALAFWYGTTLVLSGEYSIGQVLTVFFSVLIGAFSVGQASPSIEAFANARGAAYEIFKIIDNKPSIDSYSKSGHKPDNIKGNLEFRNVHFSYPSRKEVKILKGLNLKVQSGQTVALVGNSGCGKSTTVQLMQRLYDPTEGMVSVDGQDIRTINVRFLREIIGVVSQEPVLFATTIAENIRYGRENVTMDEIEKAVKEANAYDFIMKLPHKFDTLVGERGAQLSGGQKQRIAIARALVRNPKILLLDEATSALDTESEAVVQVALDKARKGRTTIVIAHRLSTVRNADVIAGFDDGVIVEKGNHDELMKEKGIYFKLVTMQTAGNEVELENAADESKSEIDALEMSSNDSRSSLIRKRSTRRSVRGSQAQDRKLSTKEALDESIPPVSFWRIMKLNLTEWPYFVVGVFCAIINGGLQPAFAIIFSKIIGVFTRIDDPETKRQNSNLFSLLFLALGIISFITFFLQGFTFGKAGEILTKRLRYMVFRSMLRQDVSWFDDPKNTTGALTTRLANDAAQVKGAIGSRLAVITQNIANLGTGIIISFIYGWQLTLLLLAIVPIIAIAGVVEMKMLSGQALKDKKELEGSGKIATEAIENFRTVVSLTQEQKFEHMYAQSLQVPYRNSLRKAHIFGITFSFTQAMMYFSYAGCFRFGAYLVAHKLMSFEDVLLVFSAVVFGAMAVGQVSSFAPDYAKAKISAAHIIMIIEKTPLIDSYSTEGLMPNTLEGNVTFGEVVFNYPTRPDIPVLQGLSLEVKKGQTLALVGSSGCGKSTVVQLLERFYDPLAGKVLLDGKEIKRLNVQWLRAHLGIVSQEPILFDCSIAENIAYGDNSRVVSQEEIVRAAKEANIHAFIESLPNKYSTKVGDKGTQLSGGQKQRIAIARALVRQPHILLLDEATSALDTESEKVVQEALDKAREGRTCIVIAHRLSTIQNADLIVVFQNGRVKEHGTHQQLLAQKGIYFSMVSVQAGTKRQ

SMILES: O=C(O)c1ccc(/C=C2\SC(=S)N(c3cccc(C(F)(F)F)c3)C2=O)cc1 [CFTRinh-172, 3-[(3-trifluoromethyl)phenyl]-5-[(4-carboxyphenyl)methylene]-2-thioxo-4-thiazolidinone]
- vincristine accumulation [1]: did not affect vincristine accumulation
- concentration giving significant CFTR inhibition ([2]; dose-inhibition, FIG. 2A): 0.3 to 0.6 µM
- relative potency (CFTR inhibition) ([2]; relative to CFTRinh-172 = 1.0): 1.0
- concentration non-toxic to FRT cells [3]: up to 100 μM
- reduction of short-circuit current [4]: > 80%
- organ distribution of ^14C radioactivity [5]: little radioactivity in brain, heart and skeletal muscle
- inhibition of Ca^2+ activated secretion ([6]; 5 μM, UTP 100 μM): did not inhibit
- maximal UTP-dependent short-circuit current ([6]; in presence of 5 μM inhibitor (SE, n=4)): 10.0±0.2 μA/cm^2
- rate of fluid absorption [7]: did not alter the rate of fluid absorption
- IC50 [8]: ~3 µM
- Ki ([8]; KI, cells depolarized by high-K^+ basolateral solution): ~300 nM
- Ki ([8]; apparent KI, after basolateral permeabilization with amphotericin B, Cl^− gradient): 300 nM
- Ki ([8]; apparent KI, non-permeabilized T84 cells): ~3000 nM
